In article PMC8155022 (Scientific Reports, 2021):

Legend:
[1] = tested on: ex vivo stimulated IL-17A production in the blood; test: mouse PK/PD model, ex vivo stimulated IL-17A production; details: 100 mg/kg oral; for inhibition at 100 mg/kg: 5-fold diluted blood
Excerpt: Compound concentrations are also listed as undiluted (measured) and diluted (extrapolated) in Supplementary Table S2.

[2] = molecular target: T1, GR (Homo sapiens, UniProt P04150); test: nuclear receptor cellular GAL4 reporter assay; format: cell-based; details: agonist and antagonist mode; read-out: potency in agonist and antagonist mode
T1 construct: expressed in transfected cells

[3] = molecular target: T2, PKA(h) (Homo sapiens, UniProt P17612); test: Kinase panel; format: biochemical
T2 construct: purchased Cerep (receptors, ion channels, transporters); Eurofins Panlabs (kinases)
Method: (§1) Kinase selectivity was conducted by Eurofins Panlabs Inc (St Charles, MO).

[4] = tested on: rabbit fetal development; test: rabbit embryo-fetal study; format: in vivo
Method: Therefore, SAD was dosed only up to 200 mg.

[5] = tested on: ex vivo stimulated IL-17A production; test: phase 1 single ascending dose study, ex vivo stimulated IL-17A production in whole blood; design: species or system human
Method: The sampling was performed up to 120 h post-dose for cohort 1 (10 mg) and cohort 2 (30 mg), and extended to 504 h for cohort 3, 4 and 5.
Whole blood samples were collected on the morning of day 1 at pre-dose and at 1, 2, 6, 12, 24, 48, 96, and 120 h post-dose in Cohorts 1 and 2. For Cohort 3,4, and 5, samples were collected the morning of day 1 at pre-dose and at 2, 6, 12, 24, 48, 120, 312 and 504 h post-dose. Blood samples (1 ml) were drawn into TruCulture tubes (Myriad RBM, Austin, TX) which contained 2 ml of cocktail containing cell culture media and stimulants, then mixed and incubated at 37 °C in a block thermostat for 48 h. The final concentrations of the stimulants in the TruCulture tube incubations were: IL-23 (50 ng/ml), and IL-1β (10 ng/ml), with anti-CD3 and anti-CD28 antibodies at standard concentration as per standard CD3/CD28 TruCulture tubes. Negative control tubes (no stimulants) were also collected at each timepoint. Supernatants were collected after the end of the incubation period and analyzed to determine concentrations of induced IL-17A using a validated immunoassay method (human IL-17A V-plex kit from Meso Scale Discovery).

[6] = molecular target: T3, IRAK4(h) (Homo sapiens, UniProt Q9NWZ3); test: Kinase panel; format: biochemical
T3 construct: purchased Cerep (receptors, ion channels, transporters); Eurofins Panlabs (kinases)
T3 sequence (Q9NWZ3 whole entry): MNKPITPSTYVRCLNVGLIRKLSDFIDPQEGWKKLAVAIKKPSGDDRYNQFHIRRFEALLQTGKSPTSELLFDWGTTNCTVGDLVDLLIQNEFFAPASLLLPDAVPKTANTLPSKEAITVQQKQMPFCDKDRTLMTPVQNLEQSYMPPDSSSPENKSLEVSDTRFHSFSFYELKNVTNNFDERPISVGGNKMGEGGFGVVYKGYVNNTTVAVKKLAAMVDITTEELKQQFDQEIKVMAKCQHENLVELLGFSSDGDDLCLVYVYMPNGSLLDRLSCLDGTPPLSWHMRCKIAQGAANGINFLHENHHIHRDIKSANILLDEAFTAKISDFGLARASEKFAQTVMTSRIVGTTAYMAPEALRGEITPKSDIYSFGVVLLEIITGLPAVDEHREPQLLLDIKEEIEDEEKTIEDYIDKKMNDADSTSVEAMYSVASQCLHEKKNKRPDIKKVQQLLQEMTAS
Method: as §1

[7] = tested on: mouse collagen-induced arthritis (CIA) model; test: mouse collagen-induced arthritis (CIA) model; format: in vivo; details: for reduction of clinical arthritis scores (AUC) vs vehicle, efficacy % inhibition: day 21-35
Method: On Day 0, mice (female DBA/1Lacj, Jackson Laboratories; 8–10 weeks) were immunized at the base of the tail with an emulsion containing equal amounts of Chick Type II Collagen (Chondrex, Redmond, WA) and Complete-Freund’s adjuvant (CFA, Chondrex), 100 µg each per mouse, and administered a second immunization boost on day 21. On this day, animals were examined for clinical arthritis scores and randomized into treatment groups. […] Clinical arthritis scores were evaluated from day 21 to 34, and animals were euthanized under CO2 on day 35. Both hind paws from each animal were collected and fixed in 10% neutral buffered formalin for histopathology.

[8] = molecular target: T4, SAPK3(h) (Homo sapiens, UniProt P53778); test: Kinase panel; format: biochemical
T4 construct: purchased Cerep (receptors, ion channels, transporters); Eurofins Panlabs (kinases)
T4 sequence (P53778 whole entry): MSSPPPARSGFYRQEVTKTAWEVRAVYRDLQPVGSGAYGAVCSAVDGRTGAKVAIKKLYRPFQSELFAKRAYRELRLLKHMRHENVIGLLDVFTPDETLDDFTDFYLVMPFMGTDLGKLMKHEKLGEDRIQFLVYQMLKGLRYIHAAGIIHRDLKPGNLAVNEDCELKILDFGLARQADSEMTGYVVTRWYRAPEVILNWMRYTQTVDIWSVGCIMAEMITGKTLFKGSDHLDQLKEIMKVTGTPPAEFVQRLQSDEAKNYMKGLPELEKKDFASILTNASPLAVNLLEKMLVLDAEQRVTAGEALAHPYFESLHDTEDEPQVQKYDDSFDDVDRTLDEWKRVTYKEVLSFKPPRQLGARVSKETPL
Method: as §1

[9] = molecular target: T5, GAL2 (h) (Homo sapiens, UniProt O43603); test: Cerep panel; format: binding
T5 construct: purchased Cerep (receptors, ion channels, transporters); Eurofins Panlabs (kinases)
T5 sequence (O43603 whole entry): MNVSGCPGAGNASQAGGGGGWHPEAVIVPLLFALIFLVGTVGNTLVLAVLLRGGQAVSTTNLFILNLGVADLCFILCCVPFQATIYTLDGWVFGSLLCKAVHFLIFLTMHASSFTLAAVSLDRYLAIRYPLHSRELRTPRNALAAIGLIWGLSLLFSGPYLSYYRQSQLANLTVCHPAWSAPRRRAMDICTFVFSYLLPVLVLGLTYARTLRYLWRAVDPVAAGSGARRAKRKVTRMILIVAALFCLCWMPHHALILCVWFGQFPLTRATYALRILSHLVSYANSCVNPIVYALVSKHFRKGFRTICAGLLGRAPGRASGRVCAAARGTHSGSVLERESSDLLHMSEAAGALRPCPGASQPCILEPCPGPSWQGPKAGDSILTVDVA
Method: (§2) A panel of 52 different receptors, ion channels and transporters was tested by Cerep, Inc. (Redmond, WA).

[10] = molecular target: T6, PXR (Homo sapiens, UniProt O75469); test: nuclear receptor cellular GAL4 reporter assay; format: cell-based
T6 construct: expressed in transfected cells
T6 sequence (O75469 whole entry, the tested form may be a part): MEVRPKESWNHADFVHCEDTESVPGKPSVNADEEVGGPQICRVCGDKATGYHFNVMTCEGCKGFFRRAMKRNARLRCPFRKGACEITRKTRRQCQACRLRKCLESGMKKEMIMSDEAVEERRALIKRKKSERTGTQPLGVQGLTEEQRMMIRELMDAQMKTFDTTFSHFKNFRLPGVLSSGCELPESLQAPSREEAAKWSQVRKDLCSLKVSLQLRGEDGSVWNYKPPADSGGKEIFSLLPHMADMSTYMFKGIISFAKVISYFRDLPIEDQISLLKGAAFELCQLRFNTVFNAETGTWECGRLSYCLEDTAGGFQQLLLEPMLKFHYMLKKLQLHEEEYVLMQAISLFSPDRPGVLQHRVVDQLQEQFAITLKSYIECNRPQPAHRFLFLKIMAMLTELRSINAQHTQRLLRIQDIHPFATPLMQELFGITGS

[11] = molecular target: T7, A3 (Homo sapiens, UniProt P0DMS8); test: follow-up functional study; format: cell-based; details: read-out: IC50 in follow-up functional studies
T7 sequence (P0DMS8 1-318): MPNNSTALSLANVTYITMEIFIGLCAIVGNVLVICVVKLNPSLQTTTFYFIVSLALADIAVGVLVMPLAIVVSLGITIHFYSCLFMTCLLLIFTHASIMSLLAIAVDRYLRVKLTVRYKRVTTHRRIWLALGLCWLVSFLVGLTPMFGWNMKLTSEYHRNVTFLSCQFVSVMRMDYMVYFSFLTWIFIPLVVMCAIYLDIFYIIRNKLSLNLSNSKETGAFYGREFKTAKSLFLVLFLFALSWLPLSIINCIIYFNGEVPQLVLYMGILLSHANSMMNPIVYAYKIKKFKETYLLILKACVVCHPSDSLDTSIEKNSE

[12] = molecular target: A2A (Homo sapiens, UniProt P29274); test: GPCR panel, cAMP or calcium FLIPR assays; format: cell-based
Chain of A2A (P29274 whole entry): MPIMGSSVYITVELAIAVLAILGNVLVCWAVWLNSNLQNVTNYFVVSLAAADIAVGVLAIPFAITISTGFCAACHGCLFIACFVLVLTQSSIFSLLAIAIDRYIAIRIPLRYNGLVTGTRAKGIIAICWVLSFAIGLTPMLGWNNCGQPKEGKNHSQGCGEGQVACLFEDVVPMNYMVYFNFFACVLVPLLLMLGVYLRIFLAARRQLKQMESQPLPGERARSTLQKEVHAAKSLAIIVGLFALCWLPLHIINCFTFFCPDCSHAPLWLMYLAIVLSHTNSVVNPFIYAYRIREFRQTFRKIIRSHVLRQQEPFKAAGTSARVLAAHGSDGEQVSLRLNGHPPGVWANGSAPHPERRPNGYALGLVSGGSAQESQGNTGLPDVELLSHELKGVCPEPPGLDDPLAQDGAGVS
Method: (§3) 28 GPCRs were evaluated through cAMP or calcium FLIPR assays[67].

[13] = molecular target: T8, beta 1 (h) (Homo sapiens, UniProt P08588); test: Cerep panel; format: binding
T8 construct: purchased Cerep (receptors, ion channels, transporters); Eurofins Panlabs (kinases)
T8 sequence (P08588 whole entry): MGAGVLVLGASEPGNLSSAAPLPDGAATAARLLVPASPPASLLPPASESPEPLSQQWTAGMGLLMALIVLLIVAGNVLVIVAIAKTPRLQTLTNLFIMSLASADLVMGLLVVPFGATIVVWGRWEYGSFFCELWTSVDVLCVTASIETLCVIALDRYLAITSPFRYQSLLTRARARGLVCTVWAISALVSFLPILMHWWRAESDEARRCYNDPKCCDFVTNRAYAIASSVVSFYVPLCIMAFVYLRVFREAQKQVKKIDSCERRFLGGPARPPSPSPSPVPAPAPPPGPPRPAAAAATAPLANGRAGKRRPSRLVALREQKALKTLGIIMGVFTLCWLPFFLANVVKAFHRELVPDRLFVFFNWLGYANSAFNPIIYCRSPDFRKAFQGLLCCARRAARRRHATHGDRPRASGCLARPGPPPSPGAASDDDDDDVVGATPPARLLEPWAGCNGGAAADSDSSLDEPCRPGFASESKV
Method: as §2

[14] = molecular target: ADRA2C (Homo sapiens, UniProt P18825); test: GPCR panel, cAMP or calcium FLIPR assays; format: cell-based
Chain of ADRA2C (P18825 whole entry, species assumed): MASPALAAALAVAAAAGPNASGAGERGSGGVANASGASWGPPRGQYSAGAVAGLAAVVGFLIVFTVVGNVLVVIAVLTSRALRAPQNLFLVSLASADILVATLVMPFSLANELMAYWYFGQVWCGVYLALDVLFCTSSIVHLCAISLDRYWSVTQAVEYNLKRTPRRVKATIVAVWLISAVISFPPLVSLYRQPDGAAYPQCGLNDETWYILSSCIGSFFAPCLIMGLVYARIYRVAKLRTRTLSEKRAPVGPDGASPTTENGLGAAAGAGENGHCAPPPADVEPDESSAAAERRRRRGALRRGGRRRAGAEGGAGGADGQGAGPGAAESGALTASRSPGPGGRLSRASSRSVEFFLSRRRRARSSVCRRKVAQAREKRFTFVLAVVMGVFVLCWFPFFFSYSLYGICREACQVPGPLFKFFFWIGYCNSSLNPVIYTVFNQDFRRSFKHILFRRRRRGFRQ
Method: as §3

[15] = molecular target: T9, GSK3β(h) (Homo sapiens, UniProt P49841); test: Kinase panel; format: biochemical
T9 construct: purchased Cerep (receptors, ion channels, transporters); Eurofins Panlabs (kinases)
T9 sequence (P49841 whole entry): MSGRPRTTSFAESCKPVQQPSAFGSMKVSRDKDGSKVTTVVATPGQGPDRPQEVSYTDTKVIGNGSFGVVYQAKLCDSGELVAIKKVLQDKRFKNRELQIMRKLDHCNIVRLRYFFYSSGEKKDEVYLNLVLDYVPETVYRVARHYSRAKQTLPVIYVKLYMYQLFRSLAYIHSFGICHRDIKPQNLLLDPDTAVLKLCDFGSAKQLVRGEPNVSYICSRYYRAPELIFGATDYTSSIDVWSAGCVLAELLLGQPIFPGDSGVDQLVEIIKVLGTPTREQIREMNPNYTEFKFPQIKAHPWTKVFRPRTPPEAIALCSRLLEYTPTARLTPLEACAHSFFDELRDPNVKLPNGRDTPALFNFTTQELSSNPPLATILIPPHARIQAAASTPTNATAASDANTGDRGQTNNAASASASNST
Method: as §1

[16] = molecular target: T10, SAPK4(h) (Homo sapiens, UniProt O15264); test: Kinase panel; format: biochemical
T10 construct: purchased Cerep (receptors, ion channels, transporters); Eurofins Panlabs (kinases)
T10 sequence (O15264 whole entry): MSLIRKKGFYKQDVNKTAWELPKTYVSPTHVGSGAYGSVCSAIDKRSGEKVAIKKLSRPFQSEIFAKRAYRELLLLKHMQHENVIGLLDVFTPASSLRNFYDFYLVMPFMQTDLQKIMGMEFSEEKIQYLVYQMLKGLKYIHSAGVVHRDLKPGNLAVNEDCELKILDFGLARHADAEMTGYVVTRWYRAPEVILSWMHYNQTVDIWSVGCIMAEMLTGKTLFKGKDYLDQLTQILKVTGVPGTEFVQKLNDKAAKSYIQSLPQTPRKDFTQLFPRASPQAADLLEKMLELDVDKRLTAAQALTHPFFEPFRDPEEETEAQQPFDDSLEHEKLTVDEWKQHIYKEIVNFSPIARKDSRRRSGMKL
Method: as §1

[17] = tested on: rat whole blood; test: in vitro whole blood assay, IL-17A production; format: cell-based; details: rat whole blood diluted 1:4; read-out: IC50, inhibition of IL-17A production
Method: Two days later, IL-17A levels were measured in culture supernatant samples (see supplementary materials and methods).

[18] = molecular target: T11, Aurora-B(h) (Homo sapiens, UniProt Q96GD4); test: Kinase panel; format: biochemical
T11 construct: purchased Cerep (receptors, ion channels, transporters); Eurofins Panlabs (kinases)
T11 sequence (Q96GD4 whole entry): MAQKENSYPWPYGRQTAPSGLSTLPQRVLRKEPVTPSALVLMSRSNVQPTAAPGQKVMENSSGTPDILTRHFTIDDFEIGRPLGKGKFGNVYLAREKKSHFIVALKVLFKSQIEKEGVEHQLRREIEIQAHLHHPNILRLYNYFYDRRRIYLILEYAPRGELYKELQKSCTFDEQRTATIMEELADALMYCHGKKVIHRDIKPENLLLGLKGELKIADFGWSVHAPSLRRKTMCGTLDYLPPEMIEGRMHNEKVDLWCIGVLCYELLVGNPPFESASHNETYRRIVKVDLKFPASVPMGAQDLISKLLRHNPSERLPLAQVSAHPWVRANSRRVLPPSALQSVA
Method: as §1

[19] = molecular target: T12, FGFR1(h) (Homo sapiens, UniProt P11362); test: Kinase panel; format: biochemical
T12 construct: purchased Cerep (receptors, ion channels, transporters); Eurofins Panlabs (kinases)
T12 sequence (P11362 22-822): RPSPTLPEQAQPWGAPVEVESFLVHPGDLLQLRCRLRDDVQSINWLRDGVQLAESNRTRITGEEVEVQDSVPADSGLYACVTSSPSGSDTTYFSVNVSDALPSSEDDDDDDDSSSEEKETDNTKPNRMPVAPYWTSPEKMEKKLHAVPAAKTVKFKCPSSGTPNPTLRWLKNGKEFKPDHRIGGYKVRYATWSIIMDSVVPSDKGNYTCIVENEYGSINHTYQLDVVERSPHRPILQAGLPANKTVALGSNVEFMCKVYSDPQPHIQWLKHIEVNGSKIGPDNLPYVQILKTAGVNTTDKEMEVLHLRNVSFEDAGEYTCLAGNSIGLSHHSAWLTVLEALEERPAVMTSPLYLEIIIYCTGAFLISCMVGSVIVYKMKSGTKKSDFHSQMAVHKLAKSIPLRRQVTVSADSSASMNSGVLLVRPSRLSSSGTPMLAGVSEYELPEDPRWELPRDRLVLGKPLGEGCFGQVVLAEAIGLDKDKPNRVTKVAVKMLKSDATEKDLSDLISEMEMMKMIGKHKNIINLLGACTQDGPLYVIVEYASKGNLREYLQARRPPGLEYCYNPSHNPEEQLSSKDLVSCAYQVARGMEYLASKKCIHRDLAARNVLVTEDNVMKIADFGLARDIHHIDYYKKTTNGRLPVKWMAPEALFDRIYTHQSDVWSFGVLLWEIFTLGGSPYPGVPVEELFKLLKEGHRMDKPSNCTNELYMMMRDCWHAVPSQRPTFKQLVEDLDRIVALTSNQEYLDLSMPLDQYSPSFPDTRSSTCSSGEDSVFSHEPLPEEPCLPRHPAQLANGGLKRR
Method: as §1

CC1CCCN1C(=O)c1nc(C(=O)NCC(C)(C)O)sc1-c1ccc(C(O)(C(F)(F)F)C(F)(F)F)c(Cl)c1Cl (stereo not drawn) [JNJ-61803534]
inhibition at 100 mg/kg ([1]; 1 h post-dose): 86 ± 6.7%
inhibition at 100 mg/kg ([1]; 2 h post-dose): 89 ± 7.1%
inhibition at 100 mg/kg ([1]; 4 h post-dose): 72 ± 14%
inhibition at 100 mg/kg ([1]; 7 h post-dose): 75 ± 7.5%
inhibition at 100 mg/kg ([1]; 12 h post-dose): 62 ± 17%
inhibition at 100 mg/kg ([1]; 18 h post-dose, without statistical significance): 30 ± 60%
EC50 at 100 mg/kg ([1]; concentration in 5-fold diluted plasma, read-out: compound concentration for 50% inhibition of ex vivo IL-17A): 240 to 860 nM
IC50 [2]: > 1500 nM
activity at 1 µM [3]: 85%
activity at 10 µM [3]: 88%
effect on fetal development [4]: fetal development was impacted
maximum inhibition of ex vivo stimulated IL-17A production as compared to placebo ([5]; 100 mg single dose, fasted (cohort 3)): 45%
maximum inhibition of ex vivo stimulated IL-17A production as compared to placebo ([5]; 200 mg single dose (cohort 4)): 54%
IL-17A inhibition ([5]; 10 and 30 mg doses): did not appear to show a separation from placebo
activity at 1 µM [6]: 113%
activity at 10 µM [6]: 112%
disease incidence at day 35 ([7]; 3 mg/kg BID): 100%
reduction of clinical arthritis scores (AUC) vs vehicle, efficacy % inhibition ([7]; 3 mg/kg BID oral): 30%
disease incidence at day 35 ([7]; 10 mg/kg BID): 89%
reduction of clinical arthritis scores (AUC) vs vehicle, efficacy % inhibition ([7]; 10 mg/kg BID oral): 44%
disease incidence at day 35 ([7]; 30 mg/kg BID): 80%
reduction of clinical arthritis scores (AUC) vs vehicle, efficacy % inhibition ([7]; 30 mg/kg BID oral): 66%
disease incidence at day 35 ([7]; 60 mg/kg QD): 100%
reduction of clinical arthritis scores (AUC) vs vehicle, efficacy % inhibition ([7]; 60 mg/kg QD oral, p > 0.05): 13%
disease incidence at day 35 ([7]; 100 mg/kg BID): 45%
reduction of clinical arthritis scores (AUC) vs vehicle, efficacy % inhibition ([7]; 100 mg/kg BID oral): 88%
inhibition of total histopathology score ([7]; 100 mg/kg, BID, oral): 94%
maximum inhibition for final arthritic score ([7]; 100 mg/kg, BID, oral): 88%
maximum inhibition of clinical score ([7]; mouse, in vivo): ~ 90%
activity at 1 µM [8]: 106%
activity at 10 µM [8]: 112%
inhibition at 1 µM [9]: < 10%
inhibition at 10 µM [9]: < 10%
mode of action on PXR [10]: possibly partial modulator
IC50 ([10]; agonist and antagonist mode): 340 nM
IC50 [11]: > 12500 nM
EC50 ([12]; agonist): > 12.5 µM
IC50 ([12]; antagonist): > 12.5 µM
inhibition at 1 µM [13]: < 10%
inhibition at 10 µM [13]: < 10%
EC50 ([14]; agonist): > 12.5 µM
IC50 ([14]; antagonist): > 12.5 µM
activity at 1 µM [15]: 111%
activity at 10 µM [15]: 105%
activity at 1 µM [16]: 100%
activity at 10 µM [16]: 112%
IC50 [17]: 120 ± 10 nM
activity at 1 µM [18]: 124%
activity at 10 µM [18]: 145%
activity at 1 µM [19]: 103%
activity at 10 µM [19]: 125%
